Measurements taken from US6890960B1, “Vetiver oil extracts as termite repellent and toxicant” (Board of Supervisors of Louisiana State University and …, priority 1999, dated 2005).
Where two headings read alike, the source gives them in different places.

Columns and labels:
[1] = tested on: termites; assay: Quick petri dish termite distribution assay of α-cedrene (treated vs untreated sand); type: in vivo; conditions: 100 μg/dish
Procedure: The termite bio-activity of α-cedrene, a component of vetiver oil, was tested using a commercially available product (Fluka, a division of Sigma-Aldrich, Inc., St. Louis, Mo.). A new method for screening compounds for termite bio-activity was developed that was faster than the bioassay described in Example 2. Five cm diameter petri dishes with lids were used. Two ml of hot agar solution (1.5 g/100 ml ddH2O) was spread evenly in the bottom of each dish and allowed to cool. The agar solution provided moisture for the termites and held the sand in place. The sand was autoclaved for 30 min, the alcohol with sample added, and dried in an oven. For three dishes, one half of the bottom of each dish was covered with 1.5 g treated sand mixed with a total of 100 μg α-cedrene per dish, dissolved in 250 μl ethanol, and the other half with 1.5 g untreated sand (only ethanol). The sand completely covered the agar, but was not thick enough to conceal tunneling termites. Three dishes were prepared as a control with only untreated sand in each side. Finally, ten termites were added to each dish, and the dishes were covered to eliminate light.
The termite distribution in each dish, measured by counting the number of termites on the untreated half of the dish, was examined each hour for up to 8 hr. […] Therefore the extract was considered a repellent. The extract was considered toxic if some or all termites behaved sluggishly, were moribund or dead.

[2] = tested on: Formosan subterranean termites; type: in vivo; conditions: for Worker Mortality, Mean ± S.D.: workers only
Procedure: The amount of nootkatone isolated from the vetiver oil was insufficient to test for termite repellant activity. Nootkatone was therefore purchased from a commercial source (Lancaster Synthesis Inc., Windham, N.H.). A three-chambered plastic container was used as described above in Example 2. A small hole was melted at the bottom of each of the two inner walls to connect the chambers. Four replicate chambers were used for each concentration of nootkatone (μg/g of sand) tested: 0, 10 μg/g, 20 μg/g, 100 μg/g, and 200 μg/g. For each concentration, the nootkatone in 25 ml ethyl alcohol was mixed with 500 g #4 blasting sand as described in Example 2. The sand was dried overnight. The next day, 115 g of treated sand was added to the middle chamber; 115 g untreated sand was added to one end chamber, and a weighted filter paper (Whatman #1, 55 mm) was placed in the opposite end chamber. The filter paper had been dried at 70° C. for 3 hr and cooled to room temperature before weighing. Then 10 ml ddH2O was added to each chamber with sand and 200 μl ddH2O was added to the filter paper. Four containers with no nootkatone served as negative controls. Fifty worker and 5 soldier termites from a single colony collected in Algiers, La., were placed in each untreated sand chamber. The chambers were covered and kept in a dark incubator at 29° C.
On the 16th day, the number of live termites was counted, and the bottom of each container was scanned to determine tunneling length as described in Example 2. The filter paper from each container was removed, cleaned, dried at 70° C. for 3 hr, cooled, and finally weighed.
Between-treatment differences in filter paper weight, mortality, and tunnel length in the treated compartments were compared by analysis of variance (ANOVA) and Tukey's Studentized Range Test. The results are presented in Tables 4, 5, and 6 and in FIGS. 1-3.

[3] = tested on: Formosan subterranean termites; assay: Feeding and tunneling experiment with treated balsa wood; type: in vivo, Coptotermes formosanus; conditions: data not shown
Procedure: Balsa wood (5 cm×5 cm×0.5 mm) was soaked for 1 hr in a 1% ethanol solution of either vetiver oil, nootkatone, TIM-BOR®, or an ethanol control. The treated wood was then dried and allowed to air until used in the experiments. The experiments were run at one, three, and six months after the wood was treated. The feeding and tunneling experimental procedure was as described in Example 2, except that in place of the filter paper as food for the termites, treated balsa wood was placed in each end compartment; and untreated sand was placed in all three chambers. Into the center chamber was added 225 workers and 25 soldiers collected from two large Formosan termite colonies in New Orleans, La. Three replicate containers for each of the two colonies and for each treatment of balsa wood were monitored for 8 days. Tunneling activity was periodically checked on days 3, 5, and 7 by scanning the bottoms of the containers. On day 8, the balsa wood was removed and weighed to determine wood consumption.

[4] = tested on: humans; conditions: use in perfumery and flavor industries; cited from earlier work

With CC1=CC[C@@]23C[C@@H]1C(C)(C)[C@@H]2CC[C@H]3C [α-Cedrene, α-cedrene] the termite deaths [1] was “None of the termites died”, the repellency for termites ([1]; 2-3 h time frame) was “weak repellent” and the “Percent of termites on the untreated side (sum of the three replicates)” value (“Percent of termites” below) ([1]; 1 hr) was 50%. For the same compound, the “Percent of termites” value ([1]; 2 hr) was 93.3%, the “Percent of termites” value ([1]; 3 hr) was 86.7% and the “Percent of termites” value ([1]; 4 hr) was 63.3%. The “Percent of termites” value ([1]; 24 hr) was 63.3%.

In the case of C=C(C)C1CCC2=CC(=O)CC(C)C2(C)C1 (stereo not shown) [nootkatone, 4,4a5,6,7,8-hexahydro-6-isopropenyl-4,4a-dimethyl-2(3H)-naphthalenone], the “Filter Paper Consumption, Mean ± S.D.” value ([2]; 10 μg/gm sand, 16th day) is reported as 0.0019 ± 0.002641 gm, the “Tunnel Length in Treated Compartment, Mean ± S.D.” value (“Tunnel Length” for short) ([2]; 10 μg/gm sand, 16th day) is reported as 7.225 ± 5.155 cm and the “Worker Mortality, Mean ± S.D.” value ([2]; 10 μg/gm sand, 16th day) is reported as 88.50 ± 10.12. For the same compound, the “Filter Paper Consumption, Mean ± S.D.” value ([2]; 20 μg/gm sand, 16th day) was 0.000525 ± 0.000709 gm, the “Tunnel Length” value ([2]; 20 μg/gm sand, 16th day) was 0.000 ± 0.000 cm and the “Worker Mortality, Mean ± S.D.” value ([2]; 20 μg/gm sand, 16th day) was 87.00 ± 18.22. For the same compound, the “Filter Paper Consumption, Mean ± S.D.” value ([2]; 100 μg/gm sand, 16th day) was 0.000025 ± 0.000050 gm, the “Tunnel Length” value ([2]; 100 μg/gm sand, 16th day) was 0.000 ± 0.000 cm and the “Worker Mortality, Mean ± S.D.” value ([2]; 100 μg/gm sand, 16th day) was 90.50 ± 11.70. The “Filter Paper Consumption, Mean ± S.D.” value ([2]; 200 μg/gm sand, 16th day) was 0.000275 ± 0.00055 gm, the “Tunnel Length” value ([2]; 200 μg/gm sand, 16th day) was 0.000 ± 0.000 cm and the “Worker Mortality, Mean ± S.D.” value ([2]; 200 μg/gm sand, 16th day) was 95.00 ± 8.718. For the same compound, the worker mortality ([2]; all chambers where the nootkatone concentration was ≦100 μg/g sand) was “Ninety percent mortality or greater”, the “tunneling in the middle chamber” value ([2]; concentrations higher than 10 μg/g, 16th day) was “no tunneling was visible” and the “consumption of filter paper” value ([2]; concentrations higher than 20 μg/g) was “Almost no consumption of filter paper”. The “lowest concentration effective as repellent and toxicant (decreased tunneling and feeding, increased mortality)” value ([2]; in sand) was 10 µg/g, the “feeding as measured by loss of filter paper weight vs control” value ([2]; lowest concentration (10 μg/g)) was “significantly decreased feeding” and the “tunneling activity in middle chamber” value ([2]; lowest concentration of 10 μg/g, 16th day) was “substantially decreased the tunneling activity”. The “ranking of effect on wood consumption” value ([3]; 1 and 3 month interval after wood treatment) was “greatest effect on decreasing wood consumption”, the “wood consumption vs control group” value ([3]; balsa wood soaked in 1% ethanol solution, 1, 3 and 6 months after treatment, day 8) was “consumed less wood than the control group” and the “effectiveness as a termite repellent” value ([3]; six months after the initial treatment of the wood sample) was “retained their effectiveness”. The “reduction of wood consumption compared with borate solution” value ([3]; six months after wood treatment) was “as effective as the borate solution”, the “tunneling activity of the termites” value ([3]; treated balsa wood, even after three months) was “substantially reduced with vetiver oil and especially with nootkatone” and the toxicity to humans [4] was “essentially non-toxic to humans”.
